Molecules are shown by their SMILES. Activity calls are given as the source filed them. No rule for the calls is given here.

The subject of the data set is CCRIS mutagenicity, Ames/micronucleus/aberration tests. The experiment in a line: CCRIS mutagenicity studies.
The mark [1] stands for this setting: Test System: AMES SALMONELLA TYPHIMURIUM, Strain/Indicator: TA98, Metabolic Activation: NONE, Method: STANDARD PLATE.
The mark [2] stands for this setting: Test System: AMES SALMONELLA TYPHIMURIUM, Strain/Indicator: TA100, Metabolic Activation: NONE, Method: STANDARD PLATE.
Setting [3] is: Test System: AMES SALMONELLA TYPHIMURIUM, Strain/Indicator: TA98, Metabolic Activation: NONE.
Where [4] appears, read: Test System: AMES SALMONELLA TYPHIMURIUM, Strain/Indicator: TA100, Metabolic Activation: NONE.

With `O=Nc1c2ccccc2c2ccc3cccc4ccc1c2c43`, the mutagenic call was “active; positive” (Test System: AMES SALMONELLA TYPHIMURIUM, Strain/Indicator: TA97, Metabolic Activation: NONE, Method: STANDARD PLATE); “active; positive” (Test System: AMES SALMONELLA TYPHIMURIUM, Strain/Indicator: TA98 (1,8-DNP6), Metabolic Activation: NONE, Method: STANDARD PLATE); “active; positive” (Test System: AMES SALMONELLA TYPHIMURIUM, Strain/Indicator: TA98 (NR), Metabolic Activation: NONE, Method: STANDARD PLATE); “active; positive” (Test System: AMES SALMONELLA TYPHIMURIUM, Strain/Indicator: TA98, Metabolic Activation: NONE', Method: STANDARD PLATE); “active; positive” under setting [1]; “active; positive” under setting [2]. Further, the mutagenic call is “active; positive” (Test System: AMES SALMONELLA TYPHIMURIUM, Strain/Indicator: TA104, Metabolic Activation: NONE, Method: STANDARD PLATE) and “active; positive” (Test System: CHINESE HAMSTER OVARY, Strain/Indicator: CHO-K1-BH4 (HGPRT), Metabolic Activation: NONE).

On to `O=c1oc2ccc([N+](=O)[O-])cc2c2ccccc12`, for which the mutagenic call is, setting by setting: (Test System: AMES SALMONELLA TYPHIMURIUM, Strain/Indicator: TA98(1,8-DNP6), Metabolic Activation: NONE, Method: MICROSUSPENSION) “active; positive”; (Test System: AMES SALMONELLA TYPHIMURIUM, Strain/Indicator: TA98(1,8-DNP6), Metabolic Activation: NONE, Method: PREINCUBATION) “active; positive”; (Test System: AMES SALMONELLA TYPHIMURIUM, Strain/Indicator: TA98(1,8-DNP6), Metabolic Activation: NONE, Method: STANDARD PLATE) “active; positive”; (Test System: AMES SALMONELLA TYPHIMURIUM, Strain/Indicator: TA98(NR), Metabolic Activation: NONE, Method: MICROSUSPENSION) “active; positive”; (Test System: AMES SALMONELLA TYPHIMURIUM, Strain/Indicator: TA98(NR), Metabolic Activation: NONE, Method: PREINCUBATION) “inactive; negative”; (Test System: AMES SALMONELLA TYPHIMURIUM, Strain/Indicator: TA98(NR), Metabolic Activation: NONE, Method: STANDARD PLATE) “active; positive”. Further, the mutagenic call runs as follows: (Test System: AMES SALMONELLA TYPHIMURIUM, Strain/Indicator: TA98(NR), Metabolic Activation: RAT LIVER S-9 (15%), Method: PREINCUBATION) “active; positive”; (Test System: AMES SALMONELLA TYPHIMURIUM, Strain/Indicator: TA98(NR), Metabolic Activation: RAT LIVER S-9, 3-METHYLCHOLANTHRENE (15%), Method: PREINCUBATION) “active; positive”; (Test System: AMES SALMONELLA TYPHIMURIUM, Strain/Indicator: TA98(NR), Metabolic Activation: RAT LIVER S-9, BETA-NAPHTHAFLAVONE (15%), Method: PREINCUBATION) “active; positive”; (Test System: AMES SALMONELLA TYPHIMURIUM, Strain/Indicator: TA98(NR), Metabolic Activation: RAT LIVER S-9, PCB (10%), Method: PREINCUBATION) “active; positive”; (Test System: AMES SALMONELLA TYPHIMURIUM, Strain/Indicator: TA98(NR), Metabolic Activation: RAT LIVER S-9, PHENOBARBITAL (15%), Method: PREINCUBATION) “active; positive”; (Test System: AMES SALMONELLA TYPHIMURIUM, Strain/Indicator: TA98(NR), Metabolic Activation: RAT, LIVER, S-9, AROCLOR 1254, Method: STANDARD PLATE) “active; positive”. Besides, the mutagenic call was “active; positive” (Test System: AMES SALMONELLA TYPHIMURIUM, Strain/Indicator: TA98, Metabolic Activation: NONE, Method: MICROSUSPENSION); “active; positive” (Test System: AMES SALMONELLA TYPHIMURIUM, Strain/Indicator: TA98, Metabolic Activation: NONE, Method: PREINCUBATION); “active; positive” under setting [1]; “active; positive” (Test System: AMES SALMONELLA TYPHIMURIUM, Strain/Indicator: TA98, Metabolic Activation: RAT, LIVER, S-9, AROCLOR 1254, Method: MICROSUSPENSION); “active; positive” (Test System: AMES SALMONELLA TYPHIMURIUM, Strain/Indicator: TA98, Metabolic Activation: RAT, LIVER, S-9, AROCLOR 1254, Method: STANDARD PLATE); “active; positive” (Test System: AMES SALMONELLA TYPHIMURIUM, Strain/Indicator: TA100, Metabolic Activation: NONE, Method: MICROSUSPENSION). Further, the mutagenic call (Test System: AMES SALMONELLA TYPHIMURIUM, Strain/Indicator: TA100, Metabolic Activation: NONE, Method: PREINCUBATION) is “active; positive”; the mutagenic call under setting [2] was “active; positive”; the mutagenic call (Test System: AMES SALMONELLA TYPHIMURIUM, Strain/Indicator: TA100, Metabolic Activation: RAT LIVER S-9, 3-METHYLCHOLANTHRENE (15%), Method: PREINCUBATION) is “active; positive”; the mutagenic call (Test System: AMES SALMONELLA TYPHIMURIUM, Strain/Indicator: TA100, Metabolic Activation: RAT, LIVER, S-9, AROCLOR 1254, Method: MICROSUSPENSION) was “active; positive”; the mutagenic call (Test System: AMES SALMONELLA TYPHIMURIUM, Strain/Indicator: TA100, Metabolic Activation: RAT, LIVER, S-9, AROCLOR 1254, Method: STANDARD PLATE) is “active; positive”; the mutagenic call (Test System: AMES SALMONELLA TYPHIMURIUM, Strain/Indicator: TA1535, Metabolic Activation: NONE, Method: STANDARD PLATE) is “active; positive”. Further, the mutagenic call is “active; positive” (Test System: AMES SALMONELLA TYPHIMURIUM, Strain/Indicator: TA1535, Metabolic Activation: RAT, LIVER, S-9, AROCLOR 1254, Method: STANDARD PLATE); “active; positive” (Test System: AMES SALMONELLA TYPHIMURIUM, Strain/Indicator: TA1537, Metabolic Activation: NONE, Method: STANDARD PLATE); “active; positive” (Test System: AMES SALMONELLA TYPHIMURIUM, Strain/Indicator: TA1537, Metabolic Activation: RAT, LIVER, S-9, AROCLOR 1254, Method: STANDARD PLATE); “active; positive” (Test System: AMES SALMONELLA TYPHIMURIUM, Strain/Indicator: TA1538, Metabolic Activation: NONE, Method: STANDARD PLATE); “active; positive” (Test System: AMES SALMONELLA TYPHIMURIUM, Strain/Indicator: TA1538, Metabolic Activation: RAT, LIVER, S-9, AROCLOR 1254, Method: STANDARD PLATE); “inactive; negative” (Test System: AMES SALMONELLA TYPHIMURIUM, Strain/Indicator: TA7001, Metabolic Activation: NONE, Method: PREINCUBATION). Further, the mutagenic call runs as follows: (Test System: AMES SALMONELLA TYPHIMURIUM, Strain/Indicator: TA7001, Metabolic Activation: RAT LIVER S-9, 3-METHYLCHOLANTHRENE (15%), Method: PREINCUBATION) “inactive; negative”; (Test System: AMES SALMONELLA TYPHIMURIUM, Strain/Indicator: TA7002, Metabolic Activation: RAT LIVER S-9, 3-METHYLCHOLANTHRENE (15%), Method: PREINCUBATION) “active; positive”; (Test System: AMES SALMONELLA TYPHIMURIUM, Strain/Indicator: TA7003, Metabolic Activation: NONE, Method: PREINCUBATION) “inactive; negative”; (Test System: AMES SALMONELLA TYPHIMURIUM, Strain/Indicator: TA7003, Metabolic Activation: RAT LIVER S-9, 3-METHYLCHOLANTHRENE (15%), Method: PREINCUBATION) “inactive; negative”; (Test System: AMES SALMONELLA TYPHIMURIUM, Strain/Indicator: TA7004, Metabolic Activation: RAT LIVER S-9, 3-METHYLCHOLANTHRENE (15%), Method: PREINCUBATION) “active; positive”; (Test System: AMES SALMONELLA TYPHIMURIUM, Strain/Indicator: TA7005, Metabolic Activation: RAT LIVER S-9, 3-METHYLCHOLANTHRENE (15%), Method: PREINCUBATION) “active; positive”. Further, the mutagenic call is “inactive; negative” (Test System: AMES SALMONELLA TYPHIMURIUM, Strain/Indicator: TA7006, Metabolic Activation: NONE, Method: PREINCUBATION) and “active; positive” (Test System: AMES SALMONELLA TYPHIMURIUM, Strain/Indicator: TA7006, Metabolic Activation: RAT LIVER S-9, 3-METHYLCHOLANTHRENE (15%), Method: PREINCUBATION).

For the compound `c1cc2ccc3nc4ccccc4c4ccc(c1)c2c34`, the mutagenic call was “inactive; negative” under setting [3]; “active; positive” (Test System: AMES SALMONELLA TYPHIMURIUM, Strain/Indicator: TA98, Metabolic Activation: S-9); “inactive; negative” under setting [4]; “active; positive” (Test System: AMES SALMONELLA TYPHIMURIUM, Strain/Indicator: TA100, Metabolic Activation: S-9).

Turning to `C/C=C/C1=CC(=O)[C@]23C[C@H]2C(C)(C)O[C@]3(O)C1=O`, the mutagenic call was “active; positive” (Test System: AMES SALMONELLA TYPHIMURIUM, Strain/Indicator: TA97, Metabolic Activation: NONE); “inactive; negative” under setting [3]; “active; positive” under setting [4]; “active; positive” (Test System: AMES SALMONELLA TYPHIMURIUM, Strain/Indicator: TA102, Metabolic Activation: NONE).

For the origin of these results see PubChem BioAssay AID1259407 (Chemical Carcinogenesis Research Information System (CCRIS), 2018).
